These results are taken from patent publication US20140090094A1, “MODULATORS OF SLC22A7” (BAYER INTELLECTUAL PROPERTY GmbH, priority 2011, published 2014).

What all share (type): cell-based
Assay [1] deals with T1, OAT2h (Homo sapiens, UniProt Q9Y694).
T1 construct: expressed in transfected cells; host or cells: 293 cells (HEK-293), pEBTetD/OAT2h, doxycycline-inducible
T1 sequence (Q9Y694 1-546 isoform Q9Y694-2): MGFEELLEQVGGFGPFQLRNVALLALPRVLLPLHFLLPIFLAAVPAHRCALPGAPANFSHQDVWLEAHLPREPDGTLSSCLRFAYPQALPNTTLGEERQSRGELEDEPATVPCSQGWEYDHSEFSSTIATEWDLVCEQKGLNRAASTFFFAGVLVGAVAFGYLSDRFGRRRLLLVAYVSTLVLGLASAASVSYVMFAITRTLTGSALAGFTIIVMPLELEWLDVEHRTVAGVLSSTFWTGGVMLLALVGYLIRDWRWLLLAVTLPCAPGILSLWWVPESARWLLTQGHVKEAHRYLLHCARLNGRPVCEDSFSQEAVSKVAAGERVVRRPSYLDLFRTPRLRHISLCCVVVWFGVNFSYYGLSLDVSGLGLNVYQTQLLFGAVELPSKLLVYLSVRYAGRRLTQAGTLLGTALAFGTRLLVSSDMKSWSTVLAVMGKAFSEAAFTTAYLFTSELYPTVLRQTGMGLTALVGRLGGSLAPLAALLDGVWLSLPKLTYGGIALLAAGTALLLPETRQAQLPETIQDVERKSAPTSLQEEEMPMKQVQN
As to the kind of experiment: 1 min uptake into 293 cells expressing OAT2 from human. To be noted: for clearance: 1 min uptake, 0.1 μmol/l radiotracer.
Experimental: (§1) Cells were used for uptake experiments at a confluence of at least 70%. Uptake was measured at 37° C. […] After preincubation for at least 20 minutes in 4 ml of uptake buffer, the buffer was replaced with 2 ml of substrate in uptake buffer. The total substrate concentration if not indicated otherwise was 0.1 μmol/l for radiotracer assays and 10 μmol/l for unlabeled compounds. Incubation was stopped after 1 min by rinsing the cells four times each with 4 ml ice-cold uptake buffer. Radioactivity was determined, after cell lysis with 0.1% v/v Triton X-100 in 5 mmol/l TRIS-HCl pH 7.4, by liquid scintillation counting. For LCelectrospray ionization-MS/MS analysis, cells were lysed with methanol and stored at −20° C.
(§2) After centrifugation (1 min, 16000×g, 20° C.) of thawed lysates, 100 μl of the supernatant was mixed with either 10 μl unlabeled MPP+ iodide (0.5 ng/μl) or biphenyl-4-carboxylic acid (Sigma-Aldrich) as internal standard. […] Atmospheric pressure ionization with positive or negative electrospray was used. For quantification (scan time 150 ms), the optimal collision energy for argon-induced fragmentation in the second quadrupole was determined for each analyte. […] Linear calibration curves were constructed from at least six standards which were prepared using control cell lysates as solvent. Sample analyte content was calculated from the analyte response ratio and the slope of the calibration curve, obtained by linear regression. With LC-MS quantitation, solute content of cell lysates was determined for 4 conditions (paired dishes, incubation time 1 min): a) transporter expression on, uptake buffer; b) expression off, uptake buffer; c) expression on, substrate in uptake buffer; d) expression off, substrate in uptake buffer. Acute uptake mediated by heterologously expressed carrier was then calculated as (c−a)−(d−b). This approach takes into account endogenous solute content and non-specific uptake. Protein was measured by the BCA assay (Pierce) with bovine serum albumin as standard. The protein content of MS samples was estimated from 3 matched cell dishes.

Assay [2] concerns the target T2, OAT2r (Rattus norvegicus, UniProt Q5RLM2).
T2 construct: expressed in transfected cells
T2 sequence (Q5RLM2 1-535): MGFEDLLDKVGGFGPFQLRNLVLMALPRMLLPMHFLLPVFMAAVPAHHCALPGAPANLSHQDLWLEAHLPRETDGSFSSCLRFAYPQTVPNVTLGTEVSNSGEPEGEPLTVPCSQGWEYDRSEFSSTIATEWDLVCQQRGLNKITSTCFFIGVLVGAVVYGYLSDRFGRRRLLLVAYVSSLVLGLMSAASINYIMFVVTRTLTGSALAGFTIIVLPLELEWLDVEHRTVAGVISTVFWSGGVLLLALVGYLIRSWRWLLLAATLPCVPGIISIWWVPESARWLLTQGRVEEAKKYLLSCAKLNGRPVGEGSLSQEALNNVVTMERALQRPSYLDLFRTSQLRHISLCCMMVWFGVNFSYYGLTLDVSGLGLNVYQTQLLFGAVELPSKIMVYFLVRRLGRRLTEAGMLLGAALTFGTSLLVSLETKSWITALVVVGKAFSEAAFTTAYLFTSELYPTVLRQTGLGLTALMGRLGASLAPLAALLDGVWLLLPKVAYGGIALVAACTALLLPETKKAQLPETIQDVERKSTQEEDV
As to the kind of experiment: 1 min uptake into 293 cells expressing OAT2 from rat.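 As to all read-outs here: uptake at 37 °C, read by liquid scintillation counting or LC-ESI-MS/MS, carrier-mediated part as induced-minus-uninduced expression difference corrected for baseline content, protein by BCA assay.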 To be noted: for clearance: 1 min uptake, 0.1 μmol/l radiotracer; for uptake after preloading with orotic acid (factor f): 1 h preincubation ±100 μmol/l unlabeled orotic acid, 3H-orotic acid 0.1 μmol/l 1 min, trigonelline 10 μmol/l 5 min.
Experimental: as §1, §2

Assay [3] addresses T3, SLC22A13h (Homo sapiens, UniProt Q9Y226).
T3 construct: expressed in transfected cells; host or cells: 293 cells (HEK-293), pEBTetD plasmid, doxycycline-inducible
The experiment in a line: uptake/accumulation in 293 cells expressing SLC22A13h. As to conditions: for clearance: 1 min uptake, 0.1 μmol/l radiotracer. How it is done:
The trigonelline content of cell lysates was determined by LC-MS/MS. […] 293 cells transfected with pEBTetD plasmids for the expression of SLC22 family carriers as indicated were grown in dishes and incubated overnight with (expression on) or without (off) doxycyclin in standard culture medium. Cells were washed with uptake buffer, incubated (1 min, 37° C.) in uptake buffer with or without 10 μmol/l unlabeled trigonelline, washed, and lysed.
For measurement of solute uptake, cells were grown in surface culture on 60 mm polystyrol dishes (Nunclon 150288, Nunc, Roskilde, Denmark) precoated with 0.1 g/l poly-L-ornithine in 0.15 M boric acid-NaOH, pH 8.4. Cells were used for uptake experiments at a confluence of at least 70%. Uptake was measured at 37° C. Uptake buffer contains 125 mmol/l NaCl, 25 mmol/l HEPES-NaOH pH 7.4, 5.6 mmol/l (+)glucose, 4.8 mmol/l KCl, 1.2 mmol/l KH2PO4, 1.2 mmol/l CaCl2, and 1.2 mmol/l MgSO4. In glutamate efflux experiments, uptake buffer without KH2PO4 was used to avoid MS interference. After preincubation for at least 20 minutes in 4 ml of uptake buffer, the buffer was replaced with 2 ml of substrate in uptake buffer. The total substrate concentration if not indicated otherwise was 0.1 μmol/l for radiotracer assays and 10 μmol/l for unlabeled compounds. Incubation was stopped after 1 min by rinsing the cells four times each with 4 ml ice-cold uptake buffer. Radioactivity was determined, after cell lysis with 0.1% v/v Triton X-100 in 5 mmol/l TRIS-HCl pH 7.4, by liquid scintillation counting. For LCelectrospray ionization-MS/MS analysis, cells were lysed with methanol and stored at −20° C.
After centrifugation (1 min, 16000×g, 20° C.) of thawed lysates, 100 μl of the supernatant was mixed with either 10 μl unlabeled MPP+ iodide (0.5 ng/μl) or biphenyl-4-carboxylic acid (Sigma-Aldrich) as internal standard. Of this mixture, […] were analyzed by LCMS/MS on a triple quadrupole mass spectrometer (4000 Q TRAP, Applied Biosystems, Darmstadt, Germany). […] For quantification (scan time 150 ms), the optimal collision energy for argon-induced fragmentation in the second quadrupole was determined for each analyte. […] Sample analyte content was calculated from the analyte response ratio and the slope of the calibration curve, obtained by linear regression. With LC-MS quantitation, solute content of cell lysates was determined for 4 conditions (paired dishes, incubation time 1 min): a) transporter expression on, uptake buffer; b) expression off, uptake buffer; c) expression on, substrate in uptake buffer; d) expression off, substrate in uptake buffer. Acute uptake mediated by heterologously expressed carrier was then calculated as (c−a)−(d−b). […] Protein was measured by the BCA assay (Pierce) with bovine serum albumin as standard. […]

The mark [4] stands for this setting: initial rate 1 min, 37° C., 10 μmol/l, LC-MS/MS, uptake buffer in the expression period.

Where “and” joins values, the source holds several entries; their conditions need not be identical. Equal entries are not always repeated.

T3 sequence (Q9Y226 whole entry): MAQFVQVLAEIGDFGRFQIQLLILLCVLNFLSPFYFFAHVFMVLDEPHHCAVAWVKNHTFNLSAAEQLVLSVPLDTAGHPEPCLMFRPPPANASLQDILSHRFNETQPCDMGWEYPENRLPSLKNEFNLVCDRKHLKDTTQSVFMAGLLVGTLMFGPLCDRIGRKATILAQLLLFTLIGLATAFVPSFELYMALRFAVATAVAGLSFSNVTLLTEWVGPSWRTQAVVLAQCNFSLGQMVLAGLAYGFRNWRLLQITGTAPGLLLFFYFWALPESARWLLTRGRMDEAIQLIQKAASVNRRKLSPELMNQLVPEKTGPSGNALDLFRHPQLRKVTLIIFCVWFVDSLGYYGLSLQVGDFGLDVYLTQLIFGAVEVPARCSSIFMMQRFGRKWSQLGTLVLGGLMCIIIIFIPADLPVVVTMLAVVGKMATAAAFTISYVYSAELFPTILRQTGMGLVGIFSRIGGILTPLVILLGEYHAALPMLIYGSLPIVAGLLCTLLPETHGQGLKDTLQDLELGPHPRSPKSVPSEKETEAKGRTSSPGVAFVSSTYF

On to `N[C@@H](CCC(=O)O)C(=O)O` [glutamate], for which the clearance in assay [1] (sodium-free buffer) was 70±5 μl min-1 mg protein-1; in assay [2] (sodium-free buffer) it was 24±1 μl min-1 mg protein-1; in assay [2] (standard uptake buffer), 35±3 μl min-1 mg protein-1; in assay [3] it was 0.3±0.6 μl min-1 mg protein-1. For the same molecule, in assay [1] (saturation of OAT2h-mediated specific uptake, 1 min, sodium-free buffer), the Vmax amounted to 36±4 nmol min-1 mg protein-1. For the same molecule, the Km in assay [1] (saturation of uptake, sodium-free buffer, measured as uptake) amounted to 1100 µM. The “transport of glutamate (in words)” value in assay [3] is on record as “do not transport”.

As for `O=C(O)c1cc(=O)[nH]c(=O)[nH]1` [orotic acid], the clearance in assay [1] (uptake buffer) was 46±1 μl min-1 mg protein-1 and 46 μl min-1 mg protein-1; in assay [2] (standard uptake buffer), 106±4 μl min-1 mg protein-1 and 106 μl min-1 mg protein-1; in assay [3] it was 3.8±0.3 μl min-1 mg protein-1. The “uptake after preloading with orotic acid (factor f)” value in assay [2] is given as 0.7. For the same molecule, the “factor of uptake reduction on average” value in assay [2] (sodium chloride replaced by choline, lithium or potassium chloride, or magnesium and calcium omitted) came to 0.75.

As for `C[n+]1cccc(C(=O)[O-])c1` [trigonelline], the carrier-mediated clearance in assay [1] (setting [4]) came to 121±5 μl min-1 mg protein-1; in assay [2] (setting [4]), 4.8±0.5 μl min-1 mg protein-1. Moreover, the “uptake after preloading with orotic acid (factor f)” value in assay [2] is 0.7. In addition, the “accumulation of trigonelline upon carrier expression (in words)” value in assay [3] (expression of SLC22A13 in 293 cells, FIG. 14) is recorded as “without effect”.

A word on the Km: it is the substrate concentration at which the rate is half of its maximum.
